Assay results as given in US20240173432A1, “Compositions and Methods for Treatment of Myotonic Dystrophy Type 1 with CRISPR/SluCas9” (Vertex Pharmaceuticals Incorporated, priority 2021, published 2024).

How the values were obtained:
[1] = test system: CUG foci in primary DM1 patient myoblasts; experiment: Dual-cut screening: FISH staining of CUG RNA foci; assay type: cell-based, human; conditions: sgRNA pair, primary DM1 patient myoblasts; for % of CUG foci free nuclei (DNA-PKi): 3 μM DNA-PKi Compound 6 for 48 hours; for % of CUG foci free nuclei (Vehicle): vehicle (DMSO)
In short: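 SluCas9 RNPs (protein:sgRNA 1:3; 20 pmol SluCas9 + 60 pmol sgRNA per guide, paired 1:1) nucleofected into primary DM1 patient myoblasts, then DMSO or 3 μM DNA-PKi Compound 6 for 48 h. At 72 h post-nucleofection cells fixed, FISH-stained with Cy3-PNA(CAG)5 probe plus anti-MBNL1 and Hoechst; % CUG foci-free nuclei by high-content confocal imaging.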

[2] = test system: CTG repeat in the 3′ UTR of human DMPK gene; experiment: Dual-cut screening: CTG repeat excision efficiency by loss-of-signal ddPCR; assay type: cell-based; conditions: sgRNA pair, primary DM1 patient myoblasts; for Excision efficiency (by ddPCR): 3 μM DNA-PKi Compound 6 for 48 hours; for Excision efficiency by ddPCR (Vehicle): vehicle (DMSO)
Description: RNPs were assembled with recombinant SluCas9 protein and chemically modified sgRNAs at a ratio of 1:3 (protein:sgRNA). For SINGLE-cut screening, RNP complexes were assembled with 30 pmol of SluCas9 and 90 pmol of sgRNA in P5 Primary Cell Nucleofector Solution (Lonza). After incubation at room temperature for 20 minutes, 10 μL of RNP complex were mixed with two hundred thousand of primary myoblasts resuspended in 10 μL of P5 Nucleofector Solution. For DOUBLE-cut screening, RNP complexes were first assembled for individual sgRNAs with 20 pmol of SluCas9 protein and 60 pmol of sgRNAs in 5 μL of P5 Nucleofector Solution. After incubation at room temperature for 20 minutes, the two RNP complexes (one for upstream sgRNA and one for downstream sgRNA) were mixed at 1:1 ratio and then further mixed with two hundred thousand of primary myoblasts resuspended in 10 μL of P5 Nucleofector Solution.
The Nucleofector 96-well Shuttle System (Lonza) was used to deliver the SluCa9/sgRNA RNPs into primary DM1 patient myoblasts using the nucleofection program CM138. Following nucleofection, myoblasts from each well of nucleofection shuttle were split into six wells of the 96-well cell culture plate (Greiner, 655090) coated with matrigel. The first three wells were treated with DMSO for 48 hrs before changing to fresh myoblast growth medium, and the other three wells were treated with 3 μM of DNA-PKi Compound 6 for 48 hrs before changing to fresh myoblast growth medium. 72 hrs post nucleofection, two wells of DMSO-treated myoblasts and two wells of DNA-PKi-treated myoblasts from each nucleofection were harvested for genomic DNA extraction using the Kingfisher Flex purification system (Thermal Fisher), whereas one well of DMSO-treated myoblasts and one well of DNA-PKi-treated myoblasts were stained for RNA foci by FISH staining.
The primers and probes of ddPCR are designed using the online primer design software Primer3Plus (http://www.bioinformatics.nl/cgi-bin/primer3plus/primer3plus.cgi). In some embodiments, two target primers/probe sets were used to detect CTG repeat excision, and a reference primers/probe set were used to amplify a region located in Exon 1 of human DMPK gene and to serve as a reference control for the target sets. The 24 μL of ddPCR reaction consists of 12 μL of Supermix for Probes (no dUTP) (Bio-Rad Laboratories), 1 μL of Reference primers mix (21.6 μM), 1 μL of Reference probe (6 μM), 1 μL of Target primers mix (21.6 μM), 1 μL of Target probe (6 μM), and 8 μL of sample genomic DNA. Droplets were generated using probe oil with the QX200 Droplet Generator (Bio-Rad Laboratories). Droplets were transferred to a 96-well PCR plate, sealed and cycled in a C1000 deep well Thermocycler (Bio-Rad Laboratories) under the following cycling protocol: 1 cycle at 95° C. for 10 min; 40 cycles of 94° C. for 30 see, and 58° C. for 1 min; 1 cycle at 98° C. for 10 min (for enzyme inactivation). The cycled plate was then transferred and read in the FAM and HEX channels using the Bio-Rad QX200 Droplet Reader (Bio-Rad Laboratories). ddPCR analysis is performed with the Bio-Rad QuantaSoft Pro Software.
To assess the efficiency of SluCas9 sgRNA pairs for inducing CTG repeat excision, Dual-cut screening was performed in which individual SluCas9 sgRNAs and recombinant SluCas9 protein were assembled into ribonucleoprotein (RNP) and delivered into primary DM1 patient myoblasts. Nucleofected myoblasts were treated with either DMSO (vehicle) or 3 μM of DNA-dependent Protein Kinase Inhibitor (DNA-PKi) Compound 6 for 48 hours. 72 hours post-nucleofection, myoblasts were subjected to either genomic DNA isolation or RNA foci staining by fluorescence in situ hybridization (FISH).
CRISPR repeat excision efficiency was assessed for each of the 88 pairs (FIG. 8A-B and Table 5). CTG repeat excision efficiency percentages are shown for vehicle (DMSO; white bars) and with DNA-PKi (black bars) (FIG. 8B and Table 5).

Row | Substance | % of CUG foci free nuclei (DNA-PKi) [1] [%] | % of CUG foci free nuclei (Vehicle) [1] [%] | Excision efficiency (by ddPCR) [2] | Excision efficiency by ddPCR (Vehicle) [2]
1 | SluU62 + SluD83 (guide 1 AGGACCCTTCGAGCCCCGTTCG; guide 2 GTGGGGACAGACAATAAATACC; guide RNA; listed as DNA, chemistry not fully specified) | 88.94 | 56.65 | 68.69 | 43.14
2 | SluU64 + SluD100 (guide 1 GGGCTCGAAGGGTCCTTGTAGC; guide 2 GTCCAGAGCTTTGGGCAGATGG; guide RNA; listed as DNA, chemistry not fully specified) | 85.89 | 69.88 | 68.22 | 45.16
3 | SluU06 + SluD32 (guide 1 TGTCTTCGACTCCGGGGCCCCG; guide 2 CTTGTGCATGACGCCCTGCTCT; guide RNA; listed as DNA, chemistry not fully specified) | 89.84 | 67.77 | 73.51 | 50.63
4 | SluU06 + SluD73 (guide 1 TGTCTTCGACTCCGGGGCCCCG; guide 2 CCAAAACGTGGATTGGGGTTGT; guide RNA; listed as DNA, chemistry not fully specified) | 88.37 | 65.15 | 63.29 | 43.4
5 | SluU59 + SluD34 (guide 1 CGCGGCCGGCGAACGGGGCTCG; guide 2 CGCGCCAGACGCTCCCCAGAGC; guide RNA; listed as DNA, chemistry not fully specified) | 89.01 | 76.47 | 71.96 | 55.22
6 | SluU62 + SluD56 (guide 1 AGGACCCTTCGAGCCCCGTTCG; guide 2 CCAGCCGGCTCCGCCCGCTTCG; guide RNA; listed as DNA, chemistry not fully specified) | 84.3 | 36.42 | 61.21 | 32.08
7 | SluU63 + SluD56 (guide 1 GGGGCTCGAAGGGTCCTTGTAG; guide 2 CCAGCCGGCTCCGCCCGCTTCG; guide RNA; listed as DNA, chemistry not fully specified) | 88.12 | 60.91 | 90.05 | 50.69
8 | SluU62 + SluD73 (guide 1 AGGACCCTTCGAGCCCCGTTCG; guide 2 CCAAAACGTGGATTGGGGTTGT; guide RNA; listed as DNA, chemistry not fully specified) | 88.13 | 52.87 | 65.89 | 38.11
9 | SluU21 + SluD14 (guide 1 GCTCGGAGCGGTTGTGAACTGG; guide 2 ATGGGCAAACTGCAGGCCTGGG; guide RNA; listed as DNA, chemistry not fully specified) | 89.6 | 61.25 | 63.05 | 54.02
10 | SluU08 + SluD68 (guide 1 GCCCCGTTGGAAGACTGAGTGC; guide 2 CCTGTAGCCTGTCAGCGAGTCG; guide RNA; listed as DNA, chemistry not fully specified) | 88.24 | 65.1 | 62.56 | 42.63
11 | SluU62 + SluD32 (guide 1 AGGACCCTTCGAGCCCCGTTCG; guide 2 CTTGTGCATGACGCCCTGCTCT; guide RNA; listed as DNA, chemistry not fully specified) | 88.75 | 55.63 | 79.91 | 50.19
12 | SluU10 + SluD48 (guide 1 CCCGTTGGAAGACTGAGTGCCC; guide 2 GAGAGCAGCGCAAGTGAGGAGG; guide RNA; listed as DNA, chemistry not fully specified) | 88.02 | 69.11 | 62.29 | 44.14
13 | SluU08 + SluD14 (guide 1 GCCCCGTTGGAAGACTGAGTGC; guide 2 ATGGGCAAACTGCAGGCCTGGG; guide RNA; listed as DNA, chemistry not fully specified) | 82.09 | 56.37 | 63.05 | 45.12
14 | SluU08 + SluD73 (guide 1 GCCCCGTTGGAAGACTGAGTGC; guide 2 CCAAAACGTGGATTGGGGTTGT; guide RNA; listed as DNA, chemistry not fully specified) | 89.94 | 65.42 | 67.61 | 50.12
15 | SluU06 + SluD83 (guide 1 TGTCTTCGACTCCGGGGCCCCG; guide 2 GTGGGGACAGACAATAAATACC; guide RNA; listed as DNA, chemistry not fully specified) | 89.45 | 66.03 | 66.18 | 46.13
16 | SluU08 + SluD100 (guide 1 GCCCCGTTGGAAGACTGAGTGC; guide 2 GTCCAGAGCTTTGGGCAGATGG; guide RNA; listed as DNA, chemistry not fully specified) | 88.59 | 66.31 | 66.38 | 41.65
17 | SluU10 + SluD06 (guide 1 CCCGTTGGAAGACTGAGTGCCC; guide 2 CCAGGCTGAGGCCCTGACGTGG; guide RNA; listed as DNA, chemistry not fully specified) | 86.35 | 61.37 | 63.05 | 48.58
18 | SluU06 + SluD56 (guide 1 TGTCTTCGACTCCGGGGCCCCG; guide 2 CCAGCCGGCTCCGCCCGCTTCG; guide RNA; listed as DNA, chemistry not fully specified) | 85.13 | 47.08 | 54.91 | 31.65
19 | SluU62 + SluD100 (guide 1 AGGACCCTTCGAGCCCCGTTCG; guide 2 GTCCAGAGCTTTGGGCAGATGG; guide RNA; listed as DNA, chemistry not fully specified) | 88.35 | 53.45 | 64.02 | 37.11
